Laboratory results as given in patent publication US5843911A, “Hyaluronidase inhibitor containing god-type ellagitannin as active ingredient” (Suntory Limited, priority 1995, dated 1998).

Target: T1, bovine testis-derived hyaluronidase (Type IV of Sigma) (Bos taurus, UniProt Q2YDK3)
T1 construct: purchased Sigma Type IV; host or cells: bovine testis
T1 sequence (Q2YDK3 36-553): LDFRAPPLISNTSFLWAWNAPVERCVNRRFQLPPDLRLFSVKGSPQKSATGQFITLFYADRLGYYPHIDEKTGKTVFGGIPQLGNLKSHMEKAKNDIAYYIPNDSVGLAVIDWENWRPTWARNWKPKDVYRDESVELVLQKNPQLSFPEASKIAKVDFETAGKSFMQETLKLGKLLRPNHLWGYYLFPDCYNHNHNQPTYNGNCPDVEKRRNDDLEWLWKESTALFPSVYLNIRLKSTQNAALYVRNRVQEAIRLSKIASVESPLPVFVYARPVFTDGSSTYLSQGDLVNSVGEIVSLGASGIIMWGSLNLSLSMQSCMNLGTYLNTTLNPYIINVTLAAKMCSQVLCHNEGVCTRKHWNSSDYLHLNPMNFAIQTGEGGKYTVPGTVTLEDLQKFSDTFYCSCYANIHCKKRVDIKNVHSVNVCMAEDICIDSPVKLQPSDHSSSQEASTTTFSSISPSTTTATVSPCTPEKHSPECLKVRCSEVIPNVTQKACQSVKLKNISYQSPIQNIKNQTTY
Test: Assay for the hyaluronidase inhibiting activity (inhibition of compound 48/80 activation of inactivated enzyme, colorimetric A585)
Format: biochemical
Conditions: 0.1M acetate buffer pH 4.0, 37° C., enzyme activated with compound 48/80, sodium hyaluronate substrate
Procedure: Stated more specifically, a suitable amount of a test sample was dissolved in 100 μl of a 0.1M acetate buffer solution (pH 4.0) and the solution was pipetted into a test tube. Following the addition of 0.10 mg (100 NF units) of the enzyme dissolved in 50 μl of the same buffer solution, the mixture was incubated at 37° C. for 20 min. […] Thereafter, 200 μg of sodium hyaluronate derived from a microorganism dissolved in 250 μl of the same buffer solution was added and the mixture was incubated at 37° C. for 40 min. Finally, 100 μl of 0.4N NaOH was added and, after cooling with ice, 100 μl of a borate buffer solution (pH 9.10) was added and the mixture was boiled for 3 min; after cooling with ice, 3 ml of a p-dimethylaminobenzaldehyde solution was added and the mixture was incubated for 20 min at 37° C. before [MUT] measurement was conducted. In place of the sample solution, 0.1M acetate buffer solution (pH 4.0) was used to prepare a control. […] The hyaluronidase inhibiting activity of the sample solution was expressed by percent inhibition as determined from the following equation: [formula] where A: [MUT] of the control solution B: [MUT] of the blank for the control solution C: [MUT] of the sample solution D: [MUT] of the blank for the sample solution.

O=C(O)c1cc(=O)c2c(OCC(O)COc3cccc4oc(C(=O)O)cc(=O)c34)cccc2o1 [Sodium cromoglycate]
IC50: 299 µM
